The text below walks through data of US10835416B2, “Ocular insert apparatus and methods” (ForSight Vision5, Inc., priority 2011, dated 2020).

One data set has as its system eye of a subject. The experiment in a line: IOP over time in a patient with a bimatoprost-loaded insert on one eye (FIG. 23). The class given is in vivo, human. The note with it: right eye (OD) with ring insert, silicone matrix (NuSil Med 4810) with about 2% bimatoprost, decreased from about 22 mm Hg, to about 28 days post-op. From the text: (§1) Test devices comprising a ring shaped retention structure comprising a nylon suture and a support structure 120 having inclined surfaces were placed in an eye of a subject. The support structure comprised a therapeutic agent contained in a silicone matrix. The silicone matrix comprised inclusions of the therapeutic agent as described herein, and the therapeutic agent comprised a prostaglandin. The silicone matrix comprised NuSil Med 4810 and the amount prostaglandin comprised about 2% bimatoprost. The cross-sectional diameter of the support comprising the matrix was about 1 mm and extended about 90 degrees around the ring shaped suture with the suture extending there through. The amount of therapeutic agent within the matrix can be increased with additional studies and embodiments, for example to within a range from about 5-10% prostaglandin such as bimatoprost. […] The ring was inserted in the right eye (OD) and the TOP decreased from about 22 mm Hg to within a range from about 15 to 18 mm Hg to about 28 days post-op. The TOP of the untreated left eye (OS) remained substantially constant and within a range from about 19 mm Hg to about 22 mm Hg. The therapeutic agent comprised a prostaglandin, bimatoprost, and the estimated amount released per day started at approximately 22 ug/day and decreased to approximately 1 ug/day. […]

Data set [1] can be described thus: Estimated amount of bimatoprost released per day from the Experiment 6 test device. Format: physicochemical. The settings on record: insert with about 2% bimatoprost in silicone matrix.
Text: as §1

The nature of data set [2]: Rate of release of bimatoprost from insert with silicone matrix (FIGS. 26A, 26B). Format: physicochemical. The procedure: FIGS. 26A and 26B show rates of release of prostaglandin comprising bimatoprost from an insert comprising a silicone matrix. The estimated rate of release for a matrix having 7% prostaglandin comprising bimatoprost loaded on the insert is above 3.5 ug per day for at least about 90 days. The rate of release of prostaglandin comprising bimatoprost was measured from a matrix comprising medical grade silicone having an approximate durometer of 10 A. The configuration of the insert and matrix is described in Table 3 with reverence to mono v.1 which comprises a 1 mm diameter silicone matrix extending along a 75 degree arc length. The surface area was 47.9 mm^2 and the volume 10.4 mm^3. For the 7% loading the amount of drug loaded on the device was about 700 μg. The rate of release of about 0.9 ug/day for 90 days was measured and the rate of release for 120 days was estimated. The therapeutic agent was released for 70 days above 1 ug per day. Based on Table 3, the matrix can be configured to release additional amounts therapeutic agent. For example, the rate of release can be increased by more than 4× by extending the matrix 360 degrees around the suture.

Data set [3] is described as follows: Wash time in 70% isopropanol bath and rate of release from silicone matrices (FIG. 27). The note with it: silicone ring with 7% bimatoprost; for elution rate: initial. Format: physicochemical. The procedure: The experiments were conducted with silicone rings having 7% prostaglandin comprising bimatoprost and medical grade silicone having a rated durometer of Shore A 10 without drug. The elution rate for the unwashed matrix (“0 wash”) was about 35 ug per day and decreased substantially. […] By day 14 the rate of release was substantially the same for each of the unwashed matrix, the matrix washed for 15 minutes, matrix washed for 60 minutes, and the matrix washed for 180 minutes.

A further data set relates to eye of a test subject. The experiment in a line: IOP of a test subject wearing successive inserts (FIG. 28). Format: in vivo, human. Here is the method: The initial studies on the test subject appear to indicate it may be helpful to provide greater amounts of therapeutic agent than would be provided based on eye drop estimates. The TOP was measured and amounts of therapeutic agent estimated. […] The twin insert was placed in a solution when the patient insert was placed in the eye. The measured rate of release of the twin placed in solution was used to determine the rate of release of the insert placed in the eye. The data of this small study indicate that in at least some instances for some patients, the target threshold amount of therapeutic agent released continuously from an insert placed in the eye may be greater than the amount provided to tissue by drops. It was observed that providing amounts of therapeutic agent greater than the estimated amount provided by drops may provide an improved result. It was observed that after about sixty days the TOP had increased to about 19.5 mm Hg was close to the control eye, and the determined rate of release was about 1.2 ug of prostaglandin comprising bimatoprost per day. The insert was replaced with a second insert providing a rate of release of about 1.6 to 2.5 ug per day based on twin measurements, and the TOP decreased to within a range from about 17 to 18 mm Hg. The second insert was replaced with a third insert providing over 3.8 to 4 ug per day based on twin measurements, and the TOP decreased further to within a range from 14.5 to 16 mm Hg.

A short description of data set [4]: Rate of release measured on twin insert placed in solution (FIG. 28). The note with it: for rate of release: based on twin measurements. Format: physicochemical. Here is the method: The initial studies on the test subject appear to indicate it may be helpful to provide greater amounts of therapeutic agent than would be provided based on eye drop estimates. The TOP was measured and amounts of therapeutic agent estimated. […] The twin insert was placed in a solution when the patient insert was placed in the eye. The measured rate of release of the twin placed in solution was used to determine the rate of release of the insert placed in the eye.

Where [5] appears, read: 60 minute wash in 70% isopropanol.
Setting [6] is: 180 minute wash in 70% isopropanol.

Turning to `CCNC(=O)CCC/C=C\C[C@@H]1[C@@H](/C=C/[C@@H](O)CCc2ccccc2)[C@H](O)C[C@@H]1O` [bimatoprost], the TOP in the data set with eye of a subject is given as 15 to 18 mm Hg; in the data set on eye of a test subject (first insert, after about sixty days, close to the control eye), “about 19.5 mm Hg”; in the data set with eye of a test subject (second insert) it was 17 to 18 mm Hg; in the data set with eye of a test subject (third insert) it was 14.5 to 16 mm Hg. Also, the “estimated amount released per day, end” value in data set [1] (decreased to) is given as “about 1 ug/day”. The “estimated amount released per day, start” value in data set [1] (started at) was “about 22 ug/day”. The “estimated rate of release” value is “above 3 ug per day” in data set [2] (matrix having 7% bimatoprost loaded on an insert, for at least about 120 days) and “above 3.5 ug per day” in data set [2] (matrix having 7% bimatoprost loaded on the insert, for at least about 90 days). In addition, the rate of release entry in data set [2] (mono v.1: 1 mm diameter 10 A silicone matrix, 75 degree arc, 7% loading (about 700 μg), measured for 90 days) is reported as “about 0.9 ug/day”; in data set [4] (second insert) it was 1.6 to 2.5 ug per day; in data set [4] (third insert), 3.8 to 4 ug per day. Moreover, the “initial rate of release” value in data set [3] (setting [5]) and in data set [3] (setting [6]) was “about 13 ug per day” each time. Also, the “rate of release at 15 days” value in data set [3] (setting [5]) and in data set [3] (setting [6]) was “about 5 ug per day” in each case. Further, the values for the elution rate result in data set [3] (unwashed matrix (0 wash)) and in data set [3] (washed for 15 minutes in 70% isopropanol) were “about 35 ug per day” and “about 17 ug per day”, respectively. In data set [4] (first insert, after about sixty days, twin insert in solution), the “determined rate of release” value is listed as “about 1.2 ug per day”.
